In ChEMBL document CHEMBL5550142, “From lab to nature: Recent advancements in the journey of gastroprotective agents from medicinal chemistry to phytotherapy” (Eur J Med Chem, 2024):
Values after ≈ are worked out from the molar mass of the structure shown.

Species: Rattus norvegicus
Experiment: Anti-ulcer activity in stress-induced Sprague-Dawley rat […] model assessed as reduction in ulcer fomation
Format: functional
Design: Activity: concentration or dose not given beside the values
Conditions: not given

| SMILES | Activity |
| --- | --- |
| CCCc1cc([S+]([O-])c2nc3ccccc3[nH]2)nc(C)n1 (centres undefined) | 74.03% |
| CCCc1cc([S+]([O-])c2nc3cc(C)ccc3[nH]2)nc(C)n1 (centres undefined) | 72.87% |
| CCCc1cc([S+]([O-])c2nc3cc([N+](=O)[O-])ccc3[nH]2)nc(C)n1 (centres undefined) | 75.15% |
| COC1Oc2ccccc2-c2sc(C=O)cc21 (centres undefined) | 7.3% |
| CC(C)Cc1ccc(C(C)C(=O)O)cc1 (centres undefined) [IBUPROFEN] | 35% |

Same assay, conditions: Rattus norvegicus, Sprague-Dawley

| SMILES | ED50 |
| --- | --- |
| Cc1c(OCC(F)(F)C(F)F)ccnc1C[S+]([O-])c1nc2ccccc2[nH]1 (centres undefined) | 1.2 mg/kg |
| [O-][S+](Cc1cc(OCC(F)(F)F)ccn1)c1nc2ccccc2[nH]1 (centres undefined) | 2 mg/kg |
| Cc1c(OCC(F)(F)F)ccnc1C[S+]([O-])c1nc2ccccc2[nH]1 (centres undefined) [LANSOPRAZOLE] | 2.4 mg/kg |
| Cc1c(OCC(F)(F)C(F)(F)F)ccnc1C[S+]([O-])c1nc2ccccc2[nH]1 (centres undefined) | 5.1 mg/kg |

System: Helicobacter pylori
Experiment: Antibacterial activity against Helicobacter pylori assessed as reduction in bacterial growth incubated for 24 hrs by broth micro-dilution method
Format: functional
Conditions: not given

| MIC | SMILES |
| --- | --- |
| 50 µg/mL (≈ 141 µM) | COc1cc2ccc(=O)oc2cc1O[C@@H]1O[C@H](CO)[C@@H](O)[C@H](O)[C@H]1O [SCOPOLIN] |
| 50 µg/mL (≈ 260 µM) | COc1cc2ccc(=O)oc2cc1O [SCOPOLETIN] |
| 0.78 µg/mL | COc1ccc2cc3[n+](cc2c1OC)CCc1cc2c(cc1-3)OCO2 [BERBERINE] |
| 3 µg/mL (≈ 14.3 µM) | C=CCSSSSCC=C [DIALLYL TETRASULFIDE] |

| SMILES | MIC |
| --- | --- |
| COc1ccc2c(c1OC)C(=O)O[C@@H]2[C@H]1c2cc3c(cc2CCN1C)OCO3 [HYDRASTINE] | 25 µg/mL (≈ 65.2 µM) |

System: Rattus norvegicus
Experiment: Gastric ulcerogenic activity in Albino wistar rat assessed as reduction in pyloric lesion at 250 mg/kg, po relative to control
Format: functional
Design: scale not given: the % may be the effect or the level left
Conditions: not given

| SMILES | Activity |
| --- | --- |
| N#Cc1c(NC(=O)c2c(-c3ccccc3)cnn(-c3ccc(Cl)cc3)c2=N)sc2sc(-c3cc4ccccc4oc3=O)nc12 | 94% |
| CCOC(=O)/C(C(=O)Nc1sc2sc(-c3cc4ccccc4oc3=O)nc2c1C#N)=C(/C)c1ccccc1 | 48% |
| O=c1oc2ccccc2cc1-c1nc2c(s1)sc1nc(=S)n(-c3ccccc3)c(O)c12 | 78% |
| N#CC1=C(N)Nc2nc(-c3cc4ccccc4oc3=O)sc2C1c1ccccc1 (centres undefined) | 82% |
| N#C/C(C(=O)Nc1sc2sc(-c3cc4ccccc4oc3=O)nc2c1C#N)=C(\C=N\Nc1ccccc1)c1ccccc1 | 66% |
| N#Cc1c(O)nc2sc3sc(-c4cc5ccccc5oc4=O)nc3c2c1O | 70% |
| N#Cc1c(N)sc2sc(-c3cc4ccccc4oc3=O)nc12 | 64% |
| COc1ccc(-n2ncc(-c3ccccc3)c(C(=O)Nc3sc4sc(-c5cc6ccccc6oc5=O)nc4c3C#N)c2=N)cc1 | 93% |

System: Rattus norvegicus
Experiment: Protection against aspirin-induced Sprague-Dawley rat model assessed as reduction in gastric glandular lesion at 20 mg/kg, po administered for 30 mins once a day relative to control
Format: functional
Design: scale not given: the % may be the effect or the level left
Conditions: 0.5 h

| SMILES | Activity |
| --- | --- |
| CC(C)NC(C)CC1OCCc2ccccc21 (centres undefined) | 61% |
| CC(CC1OCCc2ccccc21)NCC(C)c1ccccc1 (centres undefined) | 71.3% |
| CC(CC1CCCc2ccccc21)NCC(C)c1ccccc1 (centres undefined) | 71.3% |
| CC(CC1OCCc2ccccc21)NCCc1ccccc1 (centres undefined) | 71.3% |
| CN/C(=N\CCSCc1nc[nH]c1C)NC#N [CIMETIDINE] | 51.6% |

Target: not listed separately
Experiment: Inhibition of Hydrogen potassium ATPase (unknown origin)
Design: species or system Homo sapiens
Conditions: not given

| IC50 | SMILES |
| --- | --- |
| 37.91 µg/mL | COc1ccc2[nH]c([S+]([O-])Cc3ncc(C)c(OC)c3C)nc2c1 (centres undefined) [OMEPRAZOLE] |
| 35.35 µg/mL | Cc1ccc(-c2csc(NC(=O)/C=C/c3ccc(O)c(O)c3)n2)cc1 |

Same assay, conditions: read-out: IC50

| IC50 | SMILES |
| --- | --- |
| 2 µM | COc1ccc(C2CC(c3ccco3)=Nc3ccccc3S2)cc1 (centres undefined) |
| 6 µM | CCc1ccc(-c2nc3c(C(=O)NCc4cccc(CN)c4)cccn3c2NCc2ccccc2)cc1 |
| 2.1 µM | Brc1ccc(C2CC(c3ccco3)=Nc3ccccc3S2)cc1 (centres undefined) |
| 6.2 µM | Cc1ccccc1-c1nc2c(C(=O)NCc3cccc(CN)c3)cccn2c1NCc1ccccc1 |

System: Helicobacter pylori
Experiment: Antibacterial activity against Helicobacter pylori ATCC 43504 assessed as reduction in bacterial growth incubated for 24 hrs by broth micro-dilution method
Format: functional
Conditions: not given

| MIC | SMILES |
| --- | --- |
| 100 µg/mL (≈ 876 µM) | C=CCSCC=C [DIALLYL SULFIDE] |
